Structures are written as SMILES. Structures can show the parent of a compound that is named as a salt.

Series [1] has as its target T1, JAK3: Recombinant human kinase domain (h-jak3-sf21-c) (Homo sapiens, UniProt P52333).
T1 construct: JAK3: Recombinant human kinase domain from Millipore (Cat # 14-629) or prepared; purchased Millipore 14-629
Put plainly: Determination of IC50 of Janus Kinase (JAK) inhibition, JAK3 (radioactive end-point assay with 33P-ATP). It is filed as biochemical. To be noted: ATP 1.5 uM, peptide 50 uM, 20 minutes, room temperature. The text has this:
Determination of IC50 of Janus Kinase (JAK) Inhibition:
Enzymes and peptide substrate used are described below: • JAK1: Recombinant human kinase domain from Invitrogen (Cat # PV4774) • JAK3: Recombinant human kinase domain from Millipore (Cat # 14-629) or prepared. • JAK2: Recombinant human kinase domain from Millipore (Cat # 14-640) • Substrate: N-terminally biotinylated 14-mer peptide derived from activation loop of JAK1 with sequence of the peptide substrate: Biotin-[…]
Assay conditions used are described below: • Assay Buffer: JAK Kinase Buffer: 50 mM Hepes [pH 7.2], 10 mM MgCl2, 1 mM DTT, 1 mg/mL BSA. The assay is carried out in this buffer. • Assay Format The kinase activity of all three JAK kinases is measured using a radioactive, end-point assay and with trace amounts of^33P-ATP. The assays are carried out in 96-well polypropylene plates. Experimental Method:
All concentrations are final in the reaction mixture and all incubations are carried at room temperature. Assay steps are described below: • 1) Compounds are serially diluted in 100% DMSO typically at a 10× starting concentration of 1 mM. Final concentration of DMSO in the reaction is 10%. • 2) Compounds are preincubated with enzyme (0.5 nM JAK3 (commercially available), 0.2 nM JAK3 (prepared), 1 nM JAK2, 5 nM JAK1) for 10 minutes. • 3) Reactions are initiated by the addition of a cocktail of the two substrates (ATP and peptide premixed in the JAK Kinase Buffer). In the JAK2/JAK3 assays, ATP and the peptide are used at concentrations of 1.5 uM and 50 uM, respectively. JAK1 assay is carried out at an ATP concentration of 10 uM and a peptide concentration of 50 uM. • 4) The duration of the assay for JAK2 and JAK3 is 20 minutes. JAK1 assay is carried out for 40 minutes. With all three enzymes, reactions are terminated by the addition of 0.5M EDTA to a final concentration of 100 mM. • 5) 25 ul of terminated reactions are transferred to 150 ul of a 7.5% (v/v) slurry of streptavidin-coated sepharose beads in MgCl2- and CaCl2-free 1× Phosphate Buffered Saline containing 50 mM of EDTA in 96-well, 1.2 um MultiScreen-BV filter plates. • 6) After a 30-minute incubation, the beads are washed under vacuum with the following buffers: • a. 3 to 4 washes with 200 ul of 2M NaCl. • b. 3 to 4 washes with 200 ul of 2M NaCl plus 1% (v/v) phosphoric acid. • c. 1 wash with water. • 7) Washed plates are dried in a 60° C. oven for between 1 to 2 hours. • 8) 70 ul of Microscint 20 scintillation fluid is added to each well of filter plates and after at least 30 minutes of incubation, radioactive counts are measured in a Perkinelmer microplate scintillation counter.

T1 sequence (P52333 822-1111 limits assumed): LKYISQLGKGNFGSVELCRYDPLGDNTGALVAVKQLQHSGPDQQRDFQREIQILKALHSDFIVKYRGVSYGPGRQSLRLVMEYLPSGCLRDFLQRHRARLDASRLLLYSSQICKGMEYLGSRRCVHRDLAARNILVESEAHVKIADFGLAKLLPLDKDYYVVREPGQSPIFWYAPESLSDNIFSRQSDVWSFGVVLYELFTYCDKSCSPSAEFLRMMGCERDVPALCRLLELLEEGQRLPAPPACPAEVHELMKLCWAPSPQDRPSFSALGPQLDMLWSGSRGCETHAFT

For the compound `O=C(Nc1cccc(C(F)(F)F)c1)c1c[nH]c2ncc(C3CC3)nc12` [Compound I-8, 2-Cyclopropyl-5H-pyrrolo[2,3-b]pyrazine-7-carboxylic acid (3-trifluoromethyl-phenyl)-amide], the melting point (in general, the temperature, or range, at which the solid turns liquid) lay within 271.1 to 272.9 °C. Besides, the IC50 – broadly, the concentration needed to halve the response being measured – in series [1] stood at 0.963 µM.
Turning to `N#CC1(NC(=O)c2c[nH]c3ncc(C4CC4)nc23)CC1` [Compound I-10, 2-Cyclopropyl-5H-pyrrolo[2,3-b]pyrazine-7-carboxylic acid (1-cyano-cyclopropyl)-amide], the melting point is more than 300 °C. Further, the IC50 in series [1] worked out at 0.524 µM.
On the same counts, the results for `CC1(C)CCCC1NC(=O)c1c[nH]c2ncc(C3CC3)nc12` (centres unmarked) [Compound I-7, 2-Cyclopropyl-5H-pyrrolo[2,3-b]pyrazine-7-carboxylic acid (2,2-dimethyl-cyclopentyl)-amide] are more than 300 °C and 0.0011 µM.
`CS(=O)(=O)N1CCC[C@H](NC(=O)c2c[nH]c3ncc(C4CC4)nc23)C1` [Compound I-30, 2-Cyclopropyl-5H-pyrrolo[2,3-b]pyrazine-7-carboxylic acid ((S)-1-methanesulfonyl-piperidin-3-yl)-amide] showed a melting point of 278 to 281 °C. Also, the 50% inhibitory concentration (IC50) in series [1] was determined as 0.0555 µM.
On the same counts, the results for `CC(C)(O)C1(NC(=O)c2c[nH]c3ncc(C4CC4)nc23)CCCCC1` [Compound I-14, 2-Cyclopropyl-5H-pyrrolo[2,3-b]pyrazine-7-carboxylic acid [1-(1-hydroxy-1-methyl-ethyl)-cyclohexyl]-amide] are 228 to 230 °C and 0.0389 µM.
Consider `CC(=O)N[C@@H]1CCc2ccc(Oc3cnc4[nH]cc(C(=O)NC5CCCCC5)c4n3)cc21` [Compound I-40, 2-((R)-3-Acetylamino-indan-5-yloxy)-5H-pyrrolo[2,3-b]pyrazine-7-carboxylic acid cyclohexylamide], for which the IC50 in series [1] worked out at 0.0502 µM.
The same measure, in the same setting: to `CC(=O)N[C@@H]1CCc2ccc(Oc3cnc4[nH]cc(C(=O)NC5CCS(=O)(=O)CC5)c4n3)cc21` [Compound I-41, 2-((R)-3-Acetylamino-indan-5-yloxy)-5H-pyrrolo[2,3-b]pyrazine-7-carboxylic acid (1,1-dioxo-hexahydro-1λ6-thiopyran-4-yl)-amide] belongs 2.16 µM; to `O=C(N[C@H]1CCOC[C@@H]1O)c1c[nH]c2ncc(C3CC3)nc12` [Compound I-15, 2-Cyclopropyl-5H-pyrrolo[2,3-b]pyrazine-7-carboxylic acid ((3R,4S)-3-hydroxy-tetrahydro-pyran-4-yl)-amide], 0.423 µM; to `CCn1cc(-c2cnc3[nH]cc(C(=O)NC4CCCCC4(C)C)c3n2)cn1` (centres unmarked) [Compound I-39, 2-(1-Ethyl-1H-pyrazol-4-yl)-5H-pyrrolo[2,3-b]pyrazine-7-carboxylic acid (2,2-dimethyl-cyclohexyl)-amide], 0.0003 µM.
For the compound `CC(C)(O)C1(NC(=O)c2c[nH]c3ncc(C4CC4)nc23)CCNC1` (centres unmarked) (as salt: hydrochloride) [Compound I-17, 2-Cyclopropyl-5H-pyrrolo[2,3-b]pyrazine-7-carboxylic acid [3-(1-hydroxy-1-methyl-ethyl)-pyrrolidin-3-yl]-amide], the melting point is 200 to 203 °C.
Take `CC(C)(O)C1(NC(=O)c2c[nH]c3ncc(C4CC4)nc23)CCNC1` (centres unmarked) [Compound I-17, 2-Cyclopropyl-5H-pyrrolo[2,3-b]pyrazine-7-carboxylic acid [3-(1-hydroxy-1-methyl-ethyl)-pyrrolidin-3-yl]-amide]: in series [1], the IC50 is 10 µM.
As to `CC1(C)CCN(S(C)(=O)=O)CC1NC(=O)c1c[nH]c2ncc(C3CC3)nc12` (centres unmarked) [Compound I-35, 2-Cyclopropyl-5H-pyrrolo[2,3-b]pyrazine-7-carboxylic acid (1-methanesulfonyl-4,4-dimethyl-piperidin-3-yl)-amide], the IC50 in series [1] came to 0.0021 µM.

The values above are taken from patent US8329699B2, “Pyrrolopyrazine kinase inhibitors” (Hoffmann-La Roche Inc., priority 2010, dated 2012).
